≈ marks a conversion by molar mass, not a printed value. Square brackets hold non-standard residues; d marks the D form. Peptide text beside a SMILES is read from it. dOrn = NCCC[C@@H](N)C(=O)O; Orn = NCCC[C@H](N)C(=O)O

Data set [1] deals with Balamuthia mandrillaris. Description: Anti-amoebic activity against Balamuthia mandrillaris CDC V093 (ATCC 50209) assessed as reduction in amoebae viability measured after 72 hrs by luminescent based CellTiter-Glo assay. The class given is functional, organism-based. Background: In ATP-based viability assays light output follows the ATP content of the culture.
A further data set deals with A549. Description: Cytotoxicity against human A549 cells assessed as reduction in cell viability incubated for 72 hrs by CellTiter-Glo reagent based assay. The class given is functional. The following applies: A549, 72 h.
Data set [2] is described as follows: Hemolytic activity in human red blood cells assessed as hemolysis at 100 uM incubated for 1 hr by absorbance based assay relative to control. The class given is toxicity, cell-based, Erythrocyte. The settings on record: read-out: Activity.
The next data set concerns Lactococcus lactis. The experiment in a line: Antibacterial activity against Lactococcus lactis measured after 24 hrs. The class given is functional, organism-based.
The subject of data set [3] is Balamuthia mandrillaris. Description: Anti-amoebic activity against Balamuthia mandrillaris assessed as reduction in amoebae viability measured after 72 hrs by luminescent based CellTiter-Glo assay. Format: functional, organism-based.
Data set [4] is described as follows: Selectivity index, ratio of IC50 for cytotoxicity against human A549 cells to IC50 for anti-amoebic activity against Balamuthia mandrillaris CDC V093 (ATCC 50209) assessed as reduction in amoebae viability. The following applies: read-out: Ratio IC50. The class given is toxicity, cell-based.
A further data set relates to Naegleria fowleri. Description: Anti-amoebic activity against Naegleria fowleri assessed as reduction in amoebae viability measured for 72 hrs by luminescent based CellTiter-Glo assay. The class given is functional, organism-based.
A further data set relates to Acanthamoeba castellanii. The experiment in a line: Anti-amoebic activity against Acanthamoeba castellanii assessed as reduction in amoebae viability measured for 72 hrs by luminescent based CellTiter-Glo assay. Format: functional, organism-based.

The term IC50 denotes the concentration that inhibits the measured activity by half. As to `CC(C)[C@@H]1NC(=O)[C@@H](CCCCN)NC(=O)[C@H]([C@@H](C)O)NC(=O)[C@@H](CCCN)NC(=O)[C@H](Cc2ccccc2)NC(=O)[C@@H](Cc2ccccc2)NC1=O`, the concentration for half-maximal inhibition (IC50) is 3.8 µM in the data set with Balamuthia mandrillaris [1] and above 100 µM in the data set with A549. In addition, the hemolysis at 1 h, 100 µM in data set [2] is below 10%. As to `C[C@@H]1NC(=O)[C@@H](CCCNC(=N)N)NC(=O)[C@H]([C@@H](C)O)NC(=O)[C@@H](CCCN)NC(=O)[C@H](Cc2ccccc2)NC(=O)[C@@H](Cc2ccccc2)NC1=O`, in the data set on Balamuthia mandrillaris [1], the IC50 was above 20 µM. As to `C=C(NC(=O)[C@@H](NC(=O)[C@H](Cc1c[nH]cn1)NC(=O)[C@@H](NC(=O)[C@H](CO)NC(=O)[C@@H]1CS[C@@H](C)[C@H]2NC(=O)C(=C)NC(=O)[C@H](NC(=O)[C@H](CCCCN)NC(=O)[C@H](CCSC)NC(=O)[C@H](CC(N)=O)NC(=O)[C@@H]3CS[C@@H](C)[C@@H](NC(=O)[C@H](CCCNN)NC(=O)[C@@H]4CS[C@@H](C)[C@@H](NC(=O)[C@@H]5CSC[C@@H](NC(=O)/C(=C\C)NC(=O)[C@@H](N)[C@@H](C)CC)C(=O)N[C@@H]([C@@H](C)CC)C(=O)NC(=C)C(=O)N[C@@H]([C@@H](C)CC)C(=O)N5)C(=O)N5CCC[C@H]5C(=O)NCC(=O)N4)C(=O)NCC(=O)N[C@@H](C)C(=O)N[C@@H]([C@@H](C)CC)C(=O)N[C@@H](CCSC)C(=O)NCC(=O)N3)[C@H](C)SC[C@H](NC2=O)C(=O)N[C@@H](Cc2c[nH]cn2)C(=O)N1)[C@@H](C)CC)C(C)C)C(=O)N[C@@H](CCCCN)C(=O)O`, 4.5 µg/mL (≈ 1.34 µM) corresponded to half-maximal inhibition with Lactococcus lactis (IC50). As for `CC(C)[C@@H]1NC(=O)[C@@H](CCCNC(=N)N)NC(=O)[C@H]([C@@H](C)O)NC(=O)[C@@H](CCCN)NC(=O)[C@H](Cc2ccccc2)NC(=O)[C@@H](Cc2ccccc2)NC1=O`, the 50% inhibitory concentration (IC50) was 5 µM in the data set on Balamuthia mandrillaris [1], 4 µg/mL (≈ 5.23 µM) in the data set with Balamuthia mandrillaris [3] and above 100 µM with A549. The selectivity ratio at 72 h in data set [4] was above 20. In data set [2], the hemolysis at 1 h, 100 µM was below 10%. `CC(C)[C@@H]1NC(=O)[C@@H](CO)NC(=O)[C@H](CCCNC(=N)N)NC(=O)[C@@H](Cc2ccccc2)NC1=O`: the IC50 in the data set with Naegleria fowleri is 6 µg/mL (≈ 12.3 µM). As to `CC(C)[C@@H]1NC(=O)[C@@H](CCCNC(=N)N)NC(=O)[C@H]([C@@H](C)O)NC(=O)[C@@H](C)NC(=O)[C@H](Cc2ccccc2)NC(=O)[C@@H](Cc2ccccc2)NC1=O`, the IC50 in the data set with Balamuthia mandrillaris [1] was found to be 11.9 µM. The hemolysis at 1 h, 100 µM in data set [2] is below 10%. For `CC(C)[C@@H]1NC(=O)[C@@H](CCCNC(=N)N)NC(=O)[C@H]([C@@H](C)O)NC(=O)[C@@H](CCCCN)NC(=O)[C@H](Cc2ccccc2)NC(=O)[C@@H](Cc2ccccc2)NC1=O`, the IC50 in the data set on Balamuthia mandrillaris [1] was 4.1 µM. Also, the hemolysis at 1 h, 100 µM in data set [2] is below 10%. For the compound `CC(C)[C@@H]1NC(=O)[C@@H](CCCNC(=N)N)NC(=O)[C@H]([C@@H](C)O)NC(=O)[C@@H](CCCN)NC(=O)[C@H](C)NC(=O)[C@@H](Cc2ccccc2)NC1=O`, the IC50 with Balamuthia mandrillaris [1] is above 20 µM.

Regarding `CC(C)[C@@H]1NC(=O)[C@@H](C)NC(=O)[C@H]([C@@H](C)O)NC(=O)[C@@H](CCCN)NC(=O)[C@H](Cc2ccccc2)NC(=O)[C@@H](Cc2ccccc2)NC1=O`, in the data set with Balamuthia mandrillaris [1], the IC50 was above 20 µM. On to `C[C@@H]1NC(=O)[C@@H](CCCNC(=N)N)NC(=O)[C@H]([C@@H](C)O)NC(=O)[C@@H](CCCN)NC(=O)[C@H](Cc2ccccc2)NC(=O)[C@@H](C)NC1=O`, for which the half-maximal inhibitory concentration (IC50) in the data set on Balamuthia mandrillaris [1] is above 20 µM.

Take `CC(C)[C@@H]1NC(=O)[C@@H](CCCCN)NC(=O)[C@H]([C@@H](C)O)NC(=O)[C@@H](CCCCN)NC(=O)[C@H](Cc2ccccc2)NC(=O)[C@@H](Cc2ccccc2)NC1=O`: the IC50 with Balamuthia mandrillaris [1] turned out to be 3.9 µM. In addition, in data set [2], the hemolysis at 1 h, 100 µM is below 10%. With `CC(C)[C@H](N)C(=O)N[C@H](Cc1ccccc1)C(=O)N[C@@H](Cc1ccccc1)C(=O)N[C@H](CCCN)C(=O)N[C@H](C(=O)N[C@H](CCCNC(=N)N)C(=O)O)[C@@H](C)O` (H-V[dF]F[dOrn]T[dR]-OH), in the data set on Balamuthia mandrillaris [1], the half-maximal inhibitory concentration (IC50) is above 20 µM. Also, the hemolysis at 1 h, 100 µM in data set [2] was below 10%. Consider `CC(C)[C@@H]1NC(=O)[C@@H](CCCNC(=N)N)NC(=O)[C@H](C)NC(=O)[C@@H](CCCN)NC(=O)[C@H](Cc2ccccc2)NC(=O)[C@@H](Cc2ccccc2)NC1=O` (cyclo(A[dR]V[dF]F[dOrn])), for which the IC50 with Balamuthia mandrillaris [1] is 8.5 µM; with A549, above 100 µM. Moreover, the hemolysis at 1 h, 100 µM in data set [2] was below 10%. For `NCCC[C@@H]1NC(=O)[C@@H](CCCN)NC(=O)[C@H](Cc2ccccc2)NC(=O)[C@@H](Cc2ccccc2)NC(=O)[C@H](Cc2ccccc2)NC(=O)[C@@H](CCCN)NC1=O` (cyclo(F[dF]F[dOrn][Orn][dOrn])), the IC50 with Acanthamoeba castellanii worked out at 5.3 µg/mL (≈ 6.76 µM).

The values are drawn from ChEMBL document CHEMBL6153136, “Cyclic Peptide Natural Product Inspired Inhibitors of the Free-Living Amoeba Balamuthia mandrillaris” (J Nat Prod, 2025).
